Values quoted from earlier work as cited in US20170080013A1, “METHODS AND COMPOSITIONS FOR DERMATOLOGICAL USE COMPRSING HYDROCORTISONE ACETATE AND BIOPOLYMERS” (APEX LABORATORIES PRIVATE LIMITED, priority 2015, published 2017).

Solubility in alcohol (alcohol): slightly soluble
Solubility in chloroform (chloroform): slightly soluble
Solubility in water (water): insoluble
Structure (SMILES): CC(=O)OCC(=O)[C@@]1(O)CC[C@H]2[C@@H]3CCC4=CC(=O)CC[C@]4(C)[C@H]3[C@@H](O)C[C@@]21C [Hydrocortisone acetate, 11β, 17-dihydroxy-3, 20-dioxopregn-4-en-21-yl acetate]
